From patent publication US20230011168A1, “Bio-Chips and Production Method Thereof” (China Medical University, priority 2021, published 2023)

Columns and labels:
Assay type in all cases: cell-based
GR10 lung cancer cells = test: Cancer cell survival test of target drugs, GR10
breast cancer cells = test: Cell viability of breast cancer cells in biochip; conditions: for live cancer cells (cell viability, FIG. 14): after culturing for 3 days, high concentrations
Source text: FIG. 14 is a validation test of cell viability of breast cancer cells treating by couples of cancer therapeutic drugs. […] By such, the present invention can be used to determine which cancer treatment drugs are effective for the patient.
FIG. 15 is an immunohistochemistry corresponded to the test result of Taxol drug in FIG. 14.

[1] = tested on: Hela cervical cancer cells; test: Biochip drug efficacy test on Hela cervical cancer cells
Source text: (§1) The biochip 10 can be first served as a simulation model of a drug screening for cancer. This embodiment is an example of a drug screening for candidate drugs for cervical cancer taking from a target patient. It is worth mentioning that the biochip 10 provided by the present invention, the simulated vascular channel 12 in the preferred embodiment can be used for simulating an in-vivo environment of cervical cancer or breast cancer which these cancer cells are normally metabolized from the blood vessel in real human body. However, by switching the simulated vascular channel 12 into a gas or air flow channel (simulation of human trachea), it can be used as a simulation for lung cancer as another suitable applications for the present invention.
(§2) In this embodiment, when producing the simulated vascular channel 12, the fluid containing endothelial cells will be fluxed for completely adhering, attaching and even starting to be cultured to the inner surface of the simulated vascular channel 12 at 37° C. for one day. Further, the peristaltic pump is connected to circulate as a biosystem. For a single simulated vascular channel 12, it is preferred to have a perfusion rate as 13 μL/min. […]
With reference to FIGS. 8A to 8C, in this embodiment, three different cervical cancer cells are used to perform quantitative and qualitative tests of the efficacy of different cancer therapeutic drugs. […]

[2] = tested on: SiHa cervical cancer cells; test: Biochip drug efficacy test on SiHa cervical cancer cells; conditions: compared with 5-Fu and Lipodox
Source text: as §1, §2
(§3) With reference to FIGS. 8A to 8C, in this embodiment, three different cervical cancer cells are used to perform quantitative and qualitative tests of the efficacy of different cancer therapeutic drugs.

[3] = tested on: CCC cervical cancer cells; test: Biochip drug efficacy test on CCC cervical cancer cells; conditions: compared with 5-Fu and Lipodox
Source text: as §1, §2, §3

lung cancer cells = test: Cytotoxicity test on lung cancer cells in biochip, static vs dynamic perfusion
Source text: With reference to FIGS. 12A and 12B, cytotoxicity tests with 5-Fu cancer cell therapeutic drug are presented.

C#Cc1cccc(Nc2ncnc3cc(OCCOC)c(OCCOC)cc23)c1 [Erlotinib]
effect on cancer cell survival (FIG. 13B) (GR10 lung cancer cells): drug resistance

Nc1nc2[nH]cc(CCc3ccc(C(=O)N[C@@H](CCC(=O)O)C(=O)O)cc3)c2c(=O)[nH]1 [Pemetrexed]
reaction compared with the other drugs (FIG. 14) (breast cancer cells; Taxol, Cisplatin, Gemcitabine vs Pemetrexed): These three drugs show better reaction than Pemetrexed

CC(=O)O[C@H]1C(=O)[C@@]2(C)[C@H]([C@H](OC(=O)c3ccccc3)[C@]3(O)C[C@H](OC(=O)[C@H](O)[C@@H](NC(=O)c4ccccc4)c4ccccc4)C(C)=C1C3(C)C)[C@]1(OC(C)=O)CO[C@@H]1C[C@@H]2O [Taxol]
cancer cell killing effect (immunohistochemistry, apoptotic cells) ([1]; 7th day): significant cancer cell killing effect
cancer cell poisoning effect (bar diagrams, FIG. 8A) ([1]; compared with 5-Fu and Lipodox): better cancer cell poisoning effect among other two drugs
cancer cell poisoning effect (bar diagrams, FIG. 8B) [2]: better cancer cell poisoning effect among other two drugs
cancer cell poisoning effect (bar diagrams, FIG. 8C) [3]: better cancer cell poisoning effect among other two drugs
dead cancer cells (immunohistochemistry, FIG. 15) (breast cancer cells): more and more dead cancer cells are shown
live cancer cells (cell viability, FIG. 14) (breast cancer cells): significantly reducing live cancer cells

Nc1ccn([C@@H]2O[C@H](CO)[C@@H](O)C2(F)F)c(=O)n1 [Gemcitabine]
live cancer cells (cell viability, FIG. 14) (breast cancer cells): significantly reducing live cancer cells

O=c1[nH]cc(F)c(=O)[nH]1 [5-Fu]
cytotoxicity (FIG. 12A) (lung cancer cells; dynamic perfusion compared with static culture): cytotoxicity of dynamic perfusion is more remarkable
dead cancer cells (immunohistochemistry, FIG. 12B) (lung cancer cells; high dose, dynamic culture of perfusion): dead cancer cells are increased

N.N.[Cl][Pt][Cl] [Cisplatin]
live cancer cells (cell viability, FIG. 14) (breast cancer cells): significantly reducing live cancer cells

COc1cc2ncnc(Nc3ccc(F)c(Cl)c3)c2cc1OCCCN1CCOCC1 [Gefitinib]
effect on cancer cell survival (FIG. 13B) (GR10 lung cancer cells): drug resistance
